Patent publication US20250129021A1, “SMALL MOLECULE PROTEIN SYNTHESIS MODULATORS” (Interdict Bio, Inc., priority 2023, published 2025)

Legend:
Format in all cases: biochemical
Conditions in all cases: HeLa S3 lysate, sfGFP/mCherry ratio, 2 hrs at 30° C.
ALK = experiment: In vitro transcription-translation (IVTT) assay, ALK reporter
Outline: (§1)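 Reporter: mCherry, P2A, then 3×FLAG-target peptide-sfGFP fusion, IRES-initiated; HeLa S3 lysate IVTT; cpd dilutions 30 μM−0.1 μM half-log in 100% DMSO (dilution-plate conc); DNA added last; 2 h, 30° C; PBS quench.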

CCND1 = experiment: In vitro transcription-translation (IVTT) assay, CCND1 reporter
Outline: as §1

KRAS G12D = experiment: In vitro transcription-translation (IVTT) assay, KRAS G12D reporter
Outline: as §1

MCL-1 = experiment: In vitro transcription-translation (IVTT) assay, MCL-1 reporter
Outline: as §1

MYC = experiment: In vitro transcription-translation (IVTT) assay, MYC reporter
Outline: as §1

BCL-2 = experiment: In vitro transcription-translation (IVTT) assay, BCL-2 reporter
Source text: All reporter constructs have been cloned into the pT7CFE1-CHis plasmid (ThermoFisher #88860) using Gibson assembly procedures (NEB #E2611L). The parental pT7CFE1-CHis plasmid contains an EMCV IRES at the 5′UTR for translation initiation, a multiple-cloning site (MCS) for gene insertion, an optional C-terminal His-epitope tag, and polyA sequence in the 3′UTR to regulate mRNA stability. All reporters are designed to be inserted at the MCS to include a red fluorescent protein (mCherry), P2A self-cleaving peptide which releases the preceding mCherry protein product, and a fusion open reading frame containing a 3×FLAG epitope, a peptide sequence of interest (TEST), and green fluorescent protein (sfGFP).
Construct Plasmid Preparation: All plasmids are isolated from MACH1 cells (ThermoFisher) grown overnight in ampicillin-containing luria broth, and purified using ZymoPure Express Plasmid Midiprep Kit (Zymo Research). Constructs are sequenced verified and diluted to a working concentration of 110 ng/μL.
HeLa S3 Lysate Preparation: HeLa S3 cell pellets are acquired from Ipracell/Ipratech (Belgium) and shipped as 4 mL frozen cell pellets on dry ice for storage at −80° C. until use. The procedure for lysate preparation is as follows. Prepare 1× Lysis Buffer, cold and stored on ice:
Each preparation takes 8 cell pellets (4 ml packed volume each, approximately 1.0×10^9 cells per pellet). Thaw cell pellets from −80° C. on ice for 90 mins. Lay pellets horizontally on top of the ice and rotate every 30 mins to ensure even thawing. Once thawed, add 4 mL of cold lysis buffer to each pellet, and using a serological pipet, gently pipet up and down to break up clumps. Incubate resuspended cells in ice for an additional 30 mins (plunged into ice). During 30 min incubation, rinse and RNase-zap (Ambion) glass dounces (use loose pestle “A”), gently dry and place on ice until needed. Prepare RNase-free Eppendorf tubes for spinning and for batch storage. Add batch labels to 1.5-1.7 mL RNase-free microcentrifuge tubes (labeling scheme below). Each batch will have an extra 1.5-1.7 mL RNase-free microcentrifuge tube for 40 μL of lysate, label the top of this tube (labeling scheme below). After 30 min incubation, transfer all 8 mL of cell pellet to dounce. Cell lysis is complete after douncing 100 times. Aliquot cell lysis into 1.5-1.7 mL temporary-microcentrifuge tubes. Place tubes in centrifuge with “fins” out, and spin at 1,200×g for 5 mins. After the first spin use a 1 mL pipet to resuspend each tube and repeat spin. This acts as an additional lysis step, is more vigorous and increases lysate yield. During second spin get liquid N2 and a fresh conical tube on ice. After spin is complete, transfer supernatant (lysate) from microcentrifuge tubes into the 50 mL conical tube and keep on ice. Repeat steps 10-14 for all other cell pellets until completed. Once all cell lysate has been transferred to the 50 mL conical tube pipet to mix so the solution is homogenous. Transfer 1 mL of lysate into batch-labeled microcentrifuge tubes and flash freeze in liquid nitrogen. Be sure to pipet up and down to mix throughout transfer step. Place all tubes in the […] for long-term storage.
In vitro transcription-translation assay setup: Each assay includes a master mix containing lysate and shared components, a 96-well plate containing compound titrations for testing, a 96-well DNA plate with reporter constructs to be tested, 96-well skirted PCR plates, and 96-well flat-bottom, black, fluorescent assay plates. […]

| Structure (SMILES) | IC50 (ALK) | IC50 (CCND1) | IC50 (KRAS G12D) | IC50 (MCL-1) | IC50 (MYC) | IC50 (BCL-2) |
| --- | --- | --- | --- | --- | --- | --- |
| COc1ccc(C[C@H]2NC[C@H](O)[C@H]2OC(=O)NCc2ccn[nH]2)cc1 [V187321, (2R,3S,4S)-4-hydroxy-2-[(4-methoxyphenyl)methyl]pyrrolidin-3-yl N-(2H-pyrazol-3-ylmethyl)carbamate; trifluoroacetic acid] | < 10 µM | < 10 µM | < 10 µM | < 10 µM | < 10 µM | < 10 µM |
| COc1ccc(C[C@H]2NC[C@H](O)[C@H]2OC(=O)NCC2(F)CNC2)cc1 [V187877, (2R,3S,4S)-4-hydroxy-2-[(4-methoxyphenyl)methyl]pyrrolidin-3-yl N-[(3-fluoroazetidine-3-yl)methyl]carbamate] |  | > 30 µM |  | > 30 µM | > 30 µM | > 30 µM |
| COc1ccc(C[C@H]2NC[C@H](O)[C@H]2OC(=O)NCc2cccnn2)cc1 [V187916, (2R,3S,4S)-4-hydroxy-2-[(4-methoxyphenyl)methyl]pyrrolidin-3-yl N-(pyridazin-3-ylmethyl)carbamate] |  | < 10 µM |  | < 10 µM | < 10 µM | < 10 µM |
| COc1ccc(C[C@H]2NC[C@H](O)[C@H]2OC(=O)NCCNc2nc(N)nc3nc[nH]c23)cc1 [Cmpd V188056] |  | > 30 µM |  | > 30 µM | 20 to 30 µM | > 30 µM |
| COc1ccc(C[C@H]2NC[C@H](O)[C@H]2OC(=O)NCCc2ccncc2)cc1 [V187807, (2R,3S,4S)-4-hydroxy-2-[(4-methoxyphenyl)methyl]pyrrolidin-3-yl N-[2-(pyridin-4-yl)ethyl]carbamate] | < 10 µM |  | < 10 µM | < 10 µM | < 10 µM | < 10 µM |
| COc1ccc(C[C@H]2NC[C@H](O)[C@H]2OC(=O)NCC(=O)N[C@@H](C)C(N)=O)cc1 [Cmpd V188022] |  | > 30 µM |  | < 10 µM | 10 to 20 µM | 20 to 30 µM |
| COc1ccc(C[C@H]2NC[C@H](O)[C@H]2OC(=O)NCc2c[nH]cn2)cc1 [V187192, (2R,3S,4S)-4-hydroxy-2-[(4-methoxyphenyl)methyl]pyrrolidin-3-yl N-(1H-imidazol-4-ylmethyl)carbamate] | < 10 µM | < 10 µM | < 10 µM | < 10 µM | < 10 µM | < 10 µM |
| COc1ccc(C[C@H]2NC[C@H](O)[C@H]2OC(=O)NCc2ccnc(OC)c2)cc1 [V188051, (2R,3S,4S)-4-hydroxy-2-[(4-methoxyphenyl)methyl]pyrrolidin-3-yl N-[(2-methoxypyridin-4-yl)methyl]carbamate] |  | < 10 µM |  | < 10 µM | < 10 µM | < 10 µM |
| COc1ccc(C[C@H]2NC[C@H](O)[C@H]2OC(=O)NCc2cc(Cl)[nH]n2)cc1 [Cmpd V187860] |  | < 10 µM |  | < 10 µM | < 10 µM | < 10 µM |
| COc1ccc(C[C@H]2NC[C@H](O)[C@H]2OC(=O)NCCc2cc[nH]n2)cc1 [V187698, (2R,3S,4S)-4-hydroxy-2-[(4-methoxyphenyl)methyl]pyrrolidin-3-yl N-[2-(1H-pyrazol-3-yl)ethyl]carbamate; trifluoroacetic acid] | < 10 µM | < 10 µM | < 10 µM | < 10 µM | < 10 µM | < 10 µM |
| COc1ccc(C[C@H]2NC[C@H](O)[C@H]2OC(=O)NCC(=O)O)cc1 [V188016] |  | > 30 µM |  | > 30 µM | > 30 µM | > 30 µM |
| COc1ccc(C[C@H]2NC[C@H](O)[C@H]2OC(=O)NCc2ccc(-c3ccccc3)cc2)cc1 [V187977, (2R,3S,4S)-4-hydroxy-2-[(4-methoxyphenyl)methyl]pyrrolidin-3-yl N-{[1,1′-biphenyl]-4-ylmethyl}carbamate] |  | > 30 µM |  | > 30 µM | > 30 µM | > 30 µM |
| COc1ccc(C[C@H]2NC[C@H](O)[C@H]2OC(=O)NCCNc2ncnc3nc[nH]c23)cc1 [V188060, (2R,3S,4S)-4-hydroxy-2-[(4-methoxyphenyl)methyl]pyrrolidin-3-yl N-[2-(7H-purin-6-ylamino)ethyl]carbamate] |  | 20 to 30 µM |  | > 30 µM | 10 to 20 µM | > 30 µM |
| COc1ccc(C[C@H]2NC[C@H](O)[C@H]2OC(=O)NCCc2cc(C)on2)cc1 [V187719, (2R,3S,4S)-4-hydroxy-2-[(4-methoxyphenyl)methyl]pyrrolidin-3-yl N-[2-(5-methyl-1,2-oxazol-3-yl)ethyl]carbamate] |  | < 10 µM |  | < 10 µM | < 10 µM | 10 to 20 µM |
| COc1ccc(C[C@H]2NC[C@H](O)[C@H]2OC(=O)NCCc2ccn(C)n2)cc1 [V187847, (2R,3S,4S)-4-hydroxy-2-[(4-methoxyphenyl)methyl]pyrrolidin-3-yl N-[2-(1-methylpyrazol-3-yl)ethyl]carbamate] |  | 10 to 20 µM |  | < 10 µM | < 10 µM | 20 to 30 µM |
| COc1ccc(C[C@H]2NC[C@H](O)[C@H]2OC(=O)NCCc2cnc[nH]2)cc1 [V187593, (2R,3S,4S)-4-hydroxy-2-[(4-methoxyphenyl)methyl]pyrrolidin-3-yl N-[2-(3H-imidazol-4-yl)ethyl]carbamate] | < 10 µM | < 10 µM | < 10 µM | < 10 µM | < 10 µM | < 10 µM |
| COc1ccc(C[C@H]2NC[C@H](O)[C@H]2OC(=O)NCC(=O)NCC(N)=O)cc1 [V188021, (2R,3S,4S)-4-hydroxy-2-[(4-methoxyphenyl)methyl]pyrrolidin-3-yl N-[(carbamoylmethylcarbamoyl)methyl]carbamate] |  | 20 to 30 µM |  | 10 to 20 µM | 20 to 30 µM | 20 to 30 µM |
| COc1ccc(C[C@H]2NC[C@H](O)[C@H]2OC(=O)NCc2cccc(-c3ccccc3)c2)cc1 [V187982, (2R,3S,4S)-4-hydroxy-2-[(4-methoxyphenyl)methyl]pyrrolidin-3-yl N-{[1,1′-biphenyl]-3-ylmethyl}carbamate] |  | > 30 µM |  | > 30 µM | > 30 µM | > 30 µM |
